Tested on: HCV pseudoparticles
Assay: HCV pseudoparticle infection assay (luciferase reporter, Huh7 cells)
Format: cell-based, HCV (genotype 1b E1 and E2 envelope)
Conditions: Hepatitis C virus, genotype 1b, Huh-7, 48 h, HCV pseudoparticles (genotype 1b), luciferase activity 2 days after infection

## CC(C)(CNC(=O)c1ccc(Nc2nc(NC3(c4ccc(Cl)cc4)CC3)nc(OCC(F)(F)F)n2)cc1)C(=O)NS(=O)(=O)C(C)(C)C [Example 2090]
class
  EC50: 0.5 to 100 nM

## CC(C)C(=O)NS(=O)(=O)CCNC(=O)c1ccc(Nc2nc(NC3(c4ccc(Cl)cc4)CC3)nc(OCC(F)(F)F)n2)cc1 [Example 4001]
class
  EC50: 0.5 to 100 nM

## O=C(NCC1(C(=O)N[C@]2(C(=O)NS(=O)(=O)C3CC3)C[C@H]2C2CC2)CC1)c1ccc(Nc2nc(NC3(c4ccc(Cl)cc4)CC3)nc(OCC(F)(F)F)n2)cc1 [Example 2066]
class
  EC50: 0.5 to 100 nM

## O=C(NS(=O)(=O)c1ccc(Nc2nc(NC3(c4ccc(Cl)cc4)CC3)nc(OCC(F)(F)F)n2)cc1)C1(CN2CCCCC2)CC1 [Example 3002]
  EC50: 477 nM
class
  EC50: 100 to 1000 nM

## O=C(CCCNC(=O)c1ccc(Nc2nc(NC3(c4ccc(Cl)cc4)CC3)nc(OCC(F)(F)F)n2)cc1)NC1(C(=O)NS(=O)(=O)C2CC2)CC1 [Example 2033]
class
  EC50: 0.5 to 100 nM

## CN(C)CC1(S(=O)(=O)NC(=O)c2ccc(Nc3nc(OCC(F)(F)F)nc(N4CCN(S(C)(=O)=O)CC4)n3)cc2)CC1 [Example 8022]
class
  EC50: 1000 to 5000 nM

## CC(C)S(=O)(=O)NC(=O)[C@@]1(NC(=O)CCCNC(=O)c2ccc(Nc3nc(NC4(c5ccc(Cl)cc5)CC4)nc(OCC(F)(F)F)n3)cc2)C[C@H]1C1CC1(F)F (stereo partly shown) [Example 2048]
class
  EC50: 0.5 to 100 nM

## C=CS(=O)(=O)NC(=O)CNC(=O)c1ccc(Nc2nc(NC3(c4ccc(Cl)cc4)CC3)nc(OCC(F)(F)F)n2)cc1 [Example 2010]
  EC50: 67 nM
class
  EC50: 0.5 to 100 nM

## Cc1ccc(C(=O)N2CCN(c3nc(Nc4ccc(C(=O)NS(=O)(=O)C5(CN(C)C)CC5)cc4)nc(OCC(F)(F)F)n3)CC2)cc1 [Example 8027]
class
  EC50: 1000 to 5000 nM

## CC(C)(C)NC(=O)NCCS(=O)(=O)NC(=O)c1ccc(Nc2nc(NC3(c4ccc(Cl)cc4)CC3)nc(OCC(F)(F)F)n2)cc1 [Example 1049]
class
  EC50: 0.5 to 100 nM

## CC(=O)N1CCN(CC2(S(=O)(=O)NC(=O)c3ccc(Nc4nc(NC5(c6ccc(Cl)cc6)CC5)nc(OCC(F)(F)F)n4)cc3)CC2)CC1 [Example 1018]
class
  EC50: 0.5 to 100 nM

## NC(=O)c1ccc(Nc2nc(NC3(C(=O)NS(=O)(=O)C4CC4)CC3)nc(OCC(F)(F)F)n2)cc1 [Example 8002]
class
  EC50: 1000 to 5000 nM

## CC(C)(C)OC(=O)N1CCC[C@H]1C(=O)NS(=O)(=O)CCNC(=O)c1ccc(Nc2nc(NC3(c4ccc(Cl)cc4)CC3)nc(OCC(F)(F)F)n2)cc1 [Example 4004]
  EC50: 2.6 nM
class
  EC50: 0.5 to 100 nM

## C=C[C@@H]1C[C@]1(NC(=O)C1(CNC(=O)c2ccc(Nc3nc(NC4(c5ccc(Cl)cc5)CC4)nc(OCC(F)(F)F)n3)cc2)CC1)C(=O)NS(=O)(=O)C1CC1 [Example 2065]
class
  EC50: 0.5 to 100 nM

## O=C(CCN1CCS(=O)(=O)CC1)NCC1(C(=O)NS(=O)(=O)c2ccc(Nc3nc(NC4(c5ccc(Cl)cc5)CC4)nc(OCC(F)(F)F)n3)cc2)CC1 [Example 3009]
class
  EC50: 1000 to 5000 nM

## C=CS(=O)(=O)NC(=O)c1ccc(Nc2nc(NC3(c4ccc(Cl)cc4)CC3)nc(OCC(F)(F)F)n2)cc1 [Example 1004]
  EC50: 5.3 nM
class
  EC50: 0.5 to 100 nM

## CCC1(S(=O)(=O)NC(=O)c2ccc(Nc3nc(NC4(c5ccc(Cl)cc5)CC4)nc(OCC(F)(F)F)n3)cc2)CC1 [Example 1008]
  EC50: 81 nM
class
  EC50: 0.5 to 100 nM

## CNC(=O)NCCS(=O)(=O)NC(=O)c1ccc(Nc2nc(NC3(c4ccc(Cl)cc4)CC3)nc(OCC(F)(F)F)n2)cc1 [Example 1047]
class
  EC50: 0.5 to 100 nM

## CC(C)S(=O)(=O)NC(=O)CCNC(=O)CCCNC(=O)c1ccc(Nc2nc(NC3(c4ccc(Cl)cc4)CC3)nc(OCC(F)(F)F)n2)cc1 [Example 2061]
class
  EC50: 0.5 to 100 nM

## O=C(NS(=O)(=O)C1(C(=O)Nc2ccccc2)CC1)c1ccc(Nc2nc(NC3(c4ccc(Cl)cc4)CC3)nc(OCC(F)(F)F)n2)cc1 [Example 8015]
class
  EC50: 0.5 to 100 nM

## CC(=O)NCCS(=O)(=O)NC(=O)c1ccc(Nc2nc(NC3(c4ccc(Cl)cc4)CC3)nc(OCC(F)(F)F)n2)cc1 [Example 1036]
class
  EC50: 0.5 to 100 nM

## O=C(NS(=O)(=O)c1ccc(Nc2nc(NC3(c4ccc(Cl)cc4)CC3)nc(OCC(F)(F)F)n2)cc1)C1(CN2CCCC2)CC1 [Example 3001]
class
  EC50: 1000 to 5000 nM

## C[C@H](NC(=O)CCCNC(=O)c1ccc(Nc2nc(NC3(c4ccc(Cl)cc4)CC3)nc(OCC(F)(F)F)n2)cc1)C(=O)NS(=O)(=O)C1CCC1 [Example 2058]
class
  EC50: 0.5 to 100 nM

## O=C(NCCS(=O)(=O)NC(=O)C1CC1)c1ccc(Nc2nc(NC3(c4ccc(Cl)cc4)CC3)nc(OCC(F)(F)F)n2)cc1 [Example 4002]
class
  EC50: 0.5 to 100 nM

## CN(C)CC1(S(=O)(=O)NC(=O)c2ccc(Nc3nc(NC4(c5ccc(Cl)cc5)CC4)nc(OCC(F)(F)F)n3)cc2)CC1 [Example 1012]
  EC50: 0.25 nM
class
  EC50: 0.5 to 100 nM

## CC(C)S(=O)(=O)NC(=O)CCCCNC(=O)c1ccc(Nc2nc(NC3(c4ccc(Cl)cc4)CC3)nc(OCC(F)(F)F)n2)cc1 [Example 2013]
class
  EC50: 0.5 to 100 nM

## Cn1cnc(C[C@H](NC(=O)c2ccc(Nc3nc(NC4(c5ccc(Cl)cc5)CC4)nc(OCC(F)(F)F)n3)cc2)C(=O)NS(=O)(=O)C2CC2)c1 [Example 8018]
class
  EC50: 0.5 to 100 nM

## COc1ccc(S(=O)(=O)N2CCN(c3nc(Nc4ccc(C(=O)NS(=O)(=O)C5(CN(C)C)CC5)cc4)nc(OCC(F)(F)F)n3)CC2)cc1 [Example 8035]
class
  EC50: 1000 to 5000 nM

## CCS(=O)(=O)NC(=O)[C@@]1(NC(=O)CCCNC(=O)c2ccc(Nc3nc(NC4(c5ccc(Cl)cc5)CC4)nc(OCC(F)(F)F)n3)cc2)C[C@H]1C1CC1(F)F (stereo partly shown) [Example 2047]
class
  EC50: 0.5 to 100 nM

## CN(C)S(=O)(=O)NC(=O)[C@@]1(NC(=O)CCCNC(=O)c2ccc(Nc3nc(NC4(c5ccc(Cl)cc5)CC4)nc(OCC(F)(F)F)n3)cc2)C[C@H]1C1CC1 [Example 2043]
class
  EC50: 0.5 to 100 nM

## O=C(NS(=O)(=O)C1CCCC1)c1ccc(Nc2nc(NC3(c4ccc(Cl)cc4)CC3)nc(OCC(F)(F)F)n2)cc1 [Example 8017]
class
  EC50: 0.5 to 100 nM

## CC(C)S(=O)(=O)NC(=O)[C@@H](C)NC(=O)CCCNC(=O)c1ccc(Nc2nc(NC3(c4ccc(Cl)cc4)CC3)nc(OCC(F)(F)F)n2)cc1 [Example 2052]
class
  EC50: 0.5 to 100 nM

## CNC(=O)OCC1(S(=O)(=O)NC(=O)c2ccc(Nc3nc(NC4(c5ccc(Cl)cc5)CC4)nc(OCC(F)(F)F)n3)cc2)CC1 [Example 1026]
  EC50: 103 nM
class
  EC50: 100 to 1000 nM

## C[C@H](NC(=O)CCCNC(=O)c1ccc(Nc2nc(NC3(c4ccc(Cl)cc4)CC3)nc(OCC(F)(F)F)n2)cc1)C(=O)NS(=O)(=O)C1CC1 [Example 2057]
class
  EC50: 0.5 to 100 nM

## CN(C)CC1(S(=O)(=O)NC(=O)c2ccc(Nc3nc(OCC(F)(F)F)nc(N4CCN(C(=O)c5ccccc5F)CC4)n3)cc2)CC1 [Example 8029]
class
  EC50: 1000 to 5000 nM

## CCS(=O)(=O)NC(=O)C(C)(C)CNC(=O)c1ccc(Nc2nc(NC3(c4ccc(Cl)cc4)CC3)nc(OCC(F)(F)F)n2)cc1 [Example 2087]
class
  EC50: 0.5 to 100 nM

## CS(=O)(=O)NC(=O)C1(CNC(=O)c2ccc(Nc3nc(NC4(c5ccc(Cl)cc5)CC4)nc(OCC(F)(F)F)n3)cc2)CC1 [Example 2071]
class
  EC50: 0.5 to 100 nM

## O=C(NS(=O)(=O)C1(CN2CCN(c3ccncc3)CC2)CC1)c1ccc(Nc2nc(NC3(c4ccc(Cl)cc4)CC3)nc(OCC(F)(F)F)n2)cc1 [Example 1019]
class
  EC50: 0.5 to 100 nM

## CC(C)NCC1(C(=O)NS(=O)(=O)c2ccc(Nc3nc(NC4(c5ccc(Cl)cc5)CC4)nc(OCC(F)(F)F)n3)cc2)CC1 [Example 3005]
class
  EC50: 1000 to 5000 nM

## CN(C)S(=O)(=O)NC(=O)CCNC(=O)CCCNC(=O)c1ccc(Nc2nc(NC3(c4ccc(Cl)cc4)CC3)nc(OCC(F)(F)F)n2)cc1 [Example 2060]
class
  EC50: 0.5 to 100 nM

## C=C[C@@H]1C[C@]1(NC(=O)CCCNC(=O)c1ccc(Nc2nc(NC3(c4ccc(Cl)cc4)CC3)nc(OCC(F)(F)F)n2)cc1)C(=O)NS(=O)(=O)C1CC1 [Example 2032]
  EC50: 1.3 nM
class
  EC50: 0.5 to 100 nM

## O=C(CCCNC(=O)c1ccc(Nc2nc(NC3(c4ccc(Cl)cc4)CC3)nc(OCC(F)(F)F)n2)cc1)NCCC(=O)NS(=O)(=O)C1CCC1 [Example 2063]
  EC50: 37.9 nM
class
  EC50: 0.5 to 100 nM

## CC(C)(C)CNCC1(C(=O)NS(=O)(=O)c2ccc(Nc3nc(NC4(c5ccc(Cl)cc5)CC4)nc(OCC(F)(F)F)n3)cc2)CC1 [Example 3007]
  EC50: 2800 nM
class
  EC50: 1000 to 5000 nM

## C=CS(=O)(=O)NC(=O)CCCCNC(=O)c1ccc(Nc2nc(NC3(c4ccc(Cl)cc4)CC3)nc(OCC(F)(F)F)n2)cc1 [Example 2015]
class
  EC50: 0.5 to 100 nM

## O=C(NS(=O)(=O)C1(Cc2ccccc2F)CC1)c1ccc(Nc2nc(NC3(c4ccc(Cl)cc4)CC3)nc(OCC(F)(F)F)n2)cc1 [Example 8016]
class
  EC50: 0.5 to 100 nM

## O=C(NS(=O)(=O)c1ccc(Nc2nc(NC3(c4ccc(Cl)cc4)CC3)nc(OCC(F)(F)F)n2)cc1)C1(CN2CCOCC2)CC1 [Example 3003]
  EC50: 822 nM
class
  EC50: 100 to 1000 nM

## C[C@H](NC(=O)CCCNC(=O)c1ccc(Nc2nc(NC3(c4ccc(Cl)cc4)CC3)nc(OCC(F)(F)F)n2)cc1)C(=O)NS(=O)(=O)N(C)C [Example 2056]
class
  EC50: 0.5 to 100 nM

## CCN(CC)CCS(=O)(=O)NC(=O)c1ccc(Nc2nc(NC3(c4ccc(Cl)cc4)CC3)nc(OCC(F)(F)F)n2)cc1 [Example 1032]
class
  EC50: 0.5 to 100 nM

## CN(C)CCS(=O)(=O)NC(=O)c1ccc(Nc2nc(NC3(c4ccc(Cl)cc4)CC3)nc(OCC(F)(F)F)n2)cc1 [Example 1031]
class
  EC50: 0.5 to 100 nM

## CC(C)S(=O)(=O)NC(=O)[C@H](C)NC(=O)CCCNC(=O)c1ccc(Nc2nc(NC3(c4ccc(Cl)cc4)CC3)nc(OCC(F)(F)F)n2)cc1 [Example 2055]
class
  EC50: 0.5 to 100 nM

Reference: patent US8765944B2, “Compounds for the treatment of hepatitis C” (priority 2010, dated 2014)
